Laboratory results published in patent US20150374673A1, “Combination Therapy for the Treatment of Nosocomial Pneumonia” (priority 2013, published 2015).

What was measured:
E. coli = test: MIC, CLSI broth microdilution in CAMHB with 0-10% pulmonary surfactant (avibactam fixed at 4 μg/mL in combination); assay type: cell-based; settings: Escherichia coli
Protocol: (§1) The bacterial strains used in this testing were part of the microbiological culture collection housed at AstraZeneca R&D Boston (AstraZeneca Research Collection, designated ARC). The panel of bacterial isolates used for this testing was comprised of five CLSI QC reference strains and the remainder were either recent clinical isolates expressing β-lactamases or isolates from the primary bacterial screening panels.
(§2) MIC values were determined using the CLSI broth microdilution methodology with slight variation. Stock compound mother plates were prepared and used to spot 2 μL aliquots of serial 2-fold drug dilutions to columns 1-11 of 96-well daughter plates using a Perkin-Elmer MiniTrak™ MultiPosition dispenser. […] An inoculum volume of 100 μL (5×10E^5 CFU/mL) in CAMHB containing 0, 1, 2.5, 5, or 10% pulmonary surfactant was added using a multichannel Finnpipette® to each well of the 96-well plate.
(§3) The minimum inhibitory concentration (MIC) values against each organism/drug combination were determined using broth microdilution methodology according to CLSI guidelines. The recommended reference bacterial strains for each test group and reference compounds were incorporated into each test. For Gram-negatives, the reference bacterial strains were Escherichia coli ATCC 25922, E. coli ATCC 35218, Klebsiella pneumoniae ATCC 700603, and Pseudomonas aeruginosa ATCC 27853. Staphylococcus aureus ATCC 29213 was the reference bacterial strain for the Gram-positives.
(§4) MIC values for individual isolates were read visually. The MICs for each compound or combination in pulmonary surfactant was compared to the compound or combination tested in CAMHB alone.

K. pneumoniae = test: as above; assay type: cell-based; settings: Klebsiella pneumoniae
Protocol: as §1, §2, §3, §4

S. aureus = test: as above; assay type: cell-based, Staphylococcus aureus
Protocol: as §1, §2, §3, §4

[1] = Protein binding, equilibrium dialysis chamber, LC-MS/MS; assay type: in vitro ADME
Protocol: Blood was separated from plasma using a cooled centrifuge. Samples were split and stored at −80° C.

[2] = tested on: Gram-positive or Gram-negative bacterial strains; test: MIC in pulmonary surfactant compared with CAMHB alone, whole strain panel; assay type: cell-based; settings: up to 10% pulmonary surfactant vs CAMHB alone; any strain tested
Protocol: as §1, §2
The minimum inhibitory concentration (MIC) values against each organism/drug combination were determined using broth microdilution methodology according to CLSI guidelines. The recommended reference bacterial strains for each test group and reference compounds were incorporated into each test. […]
MIC values for individual isolates were read visually. […]

Compound: NC(=O)[C@@H]1CC[C@@H]2CN1C(=O)N2OS(=O)(=O)[O-].[Na+] [avibactam, [(2S,5R)-2-carbamoyl-7-oxo-1,6-diazabicyclo[3.2.1]octan-6-yl]hydrogen sulfate]
- MIC (E. coli; ATCC25922, E. coli ARC4 (CLSI QC strain, ATCC 25922), surfactant 0%): 32 µg/mL
- MIC (E. coli; ATCC25922, E. coli ARC4 (CLSI QC strain, ATCC 25922), surfactant 1%): 32 µg/mL
- MIC (E. coli; ATCC25922, E. coli ARC4 (CLSI QC strain, ATCC 25922), surfactant 2.5%): 32 µg/mL
- MIC (E. coli; ATCC25922, E. coli ARC4 (CLSI QC strain, ATCC 25922), surfactant 5%): 16 µg/mL
- MIC (E. coli; ATCC25922, E. coli ARC4 (CLSI QC strain, ATCC 25922), surfactant 10%): 16 µg/mL
- MIC (E. coli; ATCC35218, E. coli ARC016 (ATCC 35218, TEM-1), surfactant 0%): 16 µg/mL
- MIC (E. coli; ATCC35218, E. coli ARC016 (ATCC 35218, TEM-1), surfactant 1%): 16 µg/mL
- MIC (E. coli; ATCC35218, E. coli ARC016 (ATCC 35218, TEM-1), surfactant 2.5%): 16 µg/mL
- MIC (E. coli; ATCC35218, E. coli ARC016 (ATCC 35218, TEM-1), surfactant 5%): 16 µg/mL
- MIC (E. coli; ATCC35218, E. coli ARC016 (ATCC 35218, TEM-1), surfactant 10%): 16 µg/mL
- MIC (E. coli; E. coli ARC523 (W3110), surfactant 0%): > 64 µg/mL
- MIC (E. coli; E. coli ARC523 (W3110), surfactant 1%): > 64 µg/mL
- MIC (E. coli; E. coli ARC523 (W3110), surfactant 2.5%): > 64 µg/mL
- MIC (E. coli; E. coli ARC523 (W3110), surfactant 5%): > 64 µg/mL
- MIC (E. coli; E. coli ARC523 (W3110), surfactant 10%): > 64 µg/mL
- MIC (E. coli; E. coli ARC3666 (CTX-M-15, OXA-1/30, SHV-31, TEM-1), surfactant 0%): 8 µg/mL
- MIC (E. coli; E. coli ARC3666 (CTX-M-15, OXA-1/30, SHV-31, TEM-1), surfactant 1%): 8 µg/mL
- MIC (E. coli; E. coli ARC3666 (CTX-M-15, OXA-1/30, SHV-31, TEM-1), surfactant 2.5%): 8 µg/mL
- MIC (E. coli; E. coli ARC3666 (CTX-M-15, OXA-1/30, SHV-31, TEM-1), surfactant 5%): 8 µg/mL
- MIC (E. coli; E. coli ARC3666 (CTX-M-15, OXA-1/30, SHV-31, TEM-1), surfactant 10%): 8 µg/mL
- MIC (E. coli; E. coli ARC3690 (CTX-M-15, SHV-12), surfactant 0%): 16 µg/mL
- MIC (E. coli; E. coli ARC3690 (CTX-M-15, SHV-12), surfactant 1%): 16 µg/mL
- MIC (E. coli; E. coli ARC3690 (CTX-M-15, SHV-12), surfactant 2.5%): 16 µg/mL
- MIC (E. coli; E. coli ARC3690 (CTX-M-15, SHV-12), surfactant 5%): 16 µg/mL
- MIC (E. coli; E. coli ARC3690 (CTX-M-15, SHV-12), surfactant 10%): 16 µg/mL
- MIC (K. pneumoniae; ATCC700603, K. pneumoniae ARC561 (ATCC 700603; SHV-18, OXA-2, OKP-6), surfactant 0%): > 64 µg/mL
- MIC (K. pneumoniae; ATCC700603, K. pneumoniae ARC561 (ATCC 700603; SHV-18, OXA-2, OKP-6), surfactant 1%): > 64 µg/mL
- MIC (K. pneumoniae; ATCC700603, K. pneumoniae ARC561 (ATCC 700603; SHV-18, OXA-2, OKP-6), surfactant 2.5%): > 64 µg/mL
- MIC (K. pneumoniae; ATCC700603, K. pneumoniae ARC561 (ATCC 700603; SHV-18, OXA-2, OKP-6), surfactant 5%): 64 µg/mL
- MIC (K. pneumoniae; ATCC700603, K. pneumoniae ARC561 (ATCC 700603; SHV-18, OXA-2, OKP-6), surfactant 10%): 64 µg/mL
- MIC (K. pneumoniae; K. pneumoniae ARC1865 (Primary Screening Panel), surfactant 1%): > 64 µg/mL
- MIC (K. pneumoniae; K. pneumoniae ARC1865 (Primary Screening Panel), surfactant 2.5%): 64 µg/mL
- MIC (K. pneumoniae; K. pneumoniae ARC1865 (Primary Screening Panel), surfactant 5%): > 64 µg/mL
- MIC (K. pneumoniae; K. pneumoniae ARC1865 (Primary Screening Panel), surfactant 10%): > 64 µg/mL
- MIC (K. pneumoniae; K. pneumoniae ARC1865 (Primary Screening Panel), surfactant concentration cell empty): > 64 µg/mL
- MIC (K. pneumoniae; K. pneumoniae ARC2528 (Clinical isolate), surfactant 0%): 64 µg/mL
- MIC (K. pneumoniae; K. pneumoniae ARC2528 (Clinical isolate), surfactant 1%): 64 µg/mL
- MIC (K. pneumoniae; K. pneumoniae ARC2528 (Clinical isolate), surfactant 2.5%): 64 µg/mL
- MIC (K. pneumoniae; K. pneumoniae ARC2528 (Clinical isolate), surfactant 5%): 64 µg/mL
- MIC (K. pneumoniae; K. pneumoniae ARC2528 (Clinical isolate), surfactant 10%): 32 µg/mL
- MIC (K. pneumoniae; K. pneumoniae ARC2929 (KPC-3), surfactant 0%): 8 µg/mL
- MIC (K. pneumoniae; K. pneumoniae ARC2929 (KPC-3), surfactant 1%): 8 µg/mL
- MIC (K. pneumoniae; K. pneumoniae ARC2929 (KPC-3), surfactant 2.5%): 8 µg/mL
- MIC (K. pneumoniae; K. pneumoniae ARC2929 (KPC-3), surfactant 5%): 8 µg/mL
- MIC (K. pneumoniae; K. pneumoniae ARC2929 (KPC-3), surfactant 10%): 8 µg/mL
- MIC (K. pneumoniae; K. pneumoniae ARC2945 (KPC-2, SHV-11, TEM-1, OXA-9), surfactant 0%): 8 µg/mL
- MIC (K. pneumoniae; K. pneumoniae ARC2945 (KPC-2, SHV-11, TEM-1, OXA-9), surfactant 1%): 8 µg/mL
- MIC (K. pneumoniae; K. pneumoniae ARC2945 (KPC-2, SHV-11, TEM-1, OXA-9), surfactant 2.5%): 8 µg/mL
- MIC (K. pneumoniae; K. pneumoniae ARC2945 (KPC-2, SHV-11, TEM-1, OXA-9), surfactant 5%): 8 µg/mL
- MIC (K. pneumoniae; K. pneumoniae ARC2945 (KPC-2, SHV-11, TEM-1, OXA-9), surfactant 10%): 8 µg/mL
- MIC (K. pneumoniae; K. pneumoniae ARC3713 (CTX-M-15, OXA-1/30, SHV-5, TEM-1), surfactant 0%): 16 µg/mL
- MIC (K. pneumoniae; K. pneumoniae ARC3713 (CTX-M-15, OXA-1/30, SHV-5, TEM-1), surfactant 1%): 16 µg/mL
- MIC (K. pneumoniae; K. pneumoniae ARC3713 (CTX-M-15, OXA-1/30, SHV-5, TEM-1), surfactant 2.5%): 16 µg/mL
- MIC (K. pneumoniae; K. pneumoniae ARC3713 (CTX-M-15, OXA-1/30, SHV-5, TEM-1), surfactant 5%): 16 µg/mL
- MIC (K. pneumoniae; K. pneumoniae ARC3713 (CTX-M-15, OXA-1/30, SHV-5, TEM-1), surfactant 10%): 16 µg/mL
- MIC (S. aureus; S. aureus ARC12 (CLSI QC strain, ATCC 29213), surfactant 0%): >64 µg/mL
- MIC (S. aureus; S. aureus ARC12 (CLSI QC strain, ATCC 29213), surfactant 1%): >64 µg/mL
- MIC (S. aureus; S. aureus ARC12 (CLSI QC strain, ATCC 29213), surfactant 2.5%): >64 µg/mL
- MIC (S. aureus; S. aureus ARC12 (CLSI QC strain, ATCC 29213), surfactant 5%): >64 µg/mL
- MIC (S. aureus; S. aureus ARC12 (CLSI QC strain, ATCC 29213), surfactant 10%): >64 µg/mL
- MIC (S. aureus; S. aureus ARC516 (MRSA, quinolone-resistant), surfactant 0%): >64 µg/mL
- MIC (S. aureus; S. aureus ARC516 (MRSA, quinolone-resistant), surfactant 1%): >64 µg/mL
- MIC (S. aureus; S. aureus ARC516 (MRSA, quinolone-resistant), surfactant 2.5%): >64 µg/mL
- MIC (S. aureus; S. aureus ARC516 (MRSA, quinolone-resistant), surfactant 5%): >64 µg/mL
- MIC (S. aureus; S. aureus ARC516 (MRSA, quinolone-resistant), surfactant 10%): >64 µg/mL
- fraction unbound [1]: 0.92
- MIC increase in pulmonary surfactant [2]: no MIC increases were observed
